Reference: ChEMBL document CHEMBL1152995, “Combined real-time PCR and pyrosequencing strategy for objective, sensitive, specific, and high-throughput identification of reduced susceptibility to penicillins in Neisseria meningitidis” (2008)
Values after ≈ are worked out from the molar mass of the structure shown.

Experiments:
Neisseria meningitidis [1] = assay: Antibacterial activity against penicillin-intermediate resistant Neisseria meningitidis clinical isolates harbouring altered penA gene after 24 hrs by Etest method; assay type: functional
Neisseria meningitidis [2] = assay: Antibacterial activity against penicillin-intermediate resistant Neisseria meningitidis after 24 hrs by Etest method; assay type: functional

Row | SMILES | MIC (Neisseria meningitidis [1]) [µg/mL] | MIC (Neisseria meningitidis [2]) [µg/mL]
1 | CC1(C)S[C@@H]2[C@H](NC(=O)[C@H](N)c3ccccc3)C(=O)N2[C@H]1C(=O)O [AMPICILLIN] | > 0.064 | 
2 | CO/N=C(\C(=O)N[C@@H]1C(=O)N2C(C(=O)O)=C(COC(C)=O)CS[C@H]12)c1csc(N)n1 [CEFOTAXIME] | ≤ 0.012 | 
3 | CC1(C)S[C@@H]2[C@H](NC(=O)Cc3ccccc3)C(=O)N2[C@H]1C(=O)O [PENICILLIN G] | > 0.094 | 0.064 (≈ 0.191 µM)
